pIC50: −log10 of the molar value.
Test system: 695427-040-R-J1-PDC complex spheroid viability
Experiment: Anticancer human tumor 695427-040-R-J1-PDC patient-derived colon adenocarcinoma cell line growth inhibition [POLQ]
Conditions: for pIC50: curve of first compound; for viability, T/C: stronger effect = lower value
Outline: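 PDC + HUVEC + MSC complex spheroids; POLQ inhibitors ± partner drugs; top conc. at/near clinical Cmax, else 10 microM (SN-38 1 microM), half-log dilutions; 37 degrees C, 5% CO2.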

[1] = second compound 0.0316 µM, first compound 0.0316 µM
[2] = second compound 0.0316 µM, first compound 0.1 µM
[3] = second compound 0.1 µM, first compound 0.0316 µM
[4] = second compound 0.1 µM, first compound 0.1 µM
[5] = second compound 0.316 µM, first compound 0.0316 µM
[6] = second compound 0.316 µM, first compound 0.1 µM
[7] = second compound 1 µM, first compound 0.0316 µM
[8] = second compound 1 µM, first compound 0.1 µM
[9] = second compound 3.16 µM, first compound 0.0316 µM
[10] = second compound 3.16 µM, first compound 0.1 µM
[11] = second compound 10 µM, first compound 0.0316 µM
[12] = second compound 10 µM, first compound 0.1 µM
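Note: spheroids exposed to compounds for seven days.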
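Throughout, for viability, T/C: 100% = DMSO vehicle control viability.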

Compound: Cn1ncnc1[C@H]1c2n[nH]c(=O)c3cc(F)cc(c23)N[C@@H]1c1ccc(F)cc1 + Nc1ccc(C#CCN(C(=O)Cc2ncc(C(F)(F)F)cc2C(F)(F)F)c2ccc(F)cc2)nn1
- pIC50 (second compound 0.0316 µM): < 7.00
- pIC50 (second compound 0.1 µM): < 7.00
- pIC50 (second compound 0.316 µM): < 7.00
- pIC50 (second compound 1 µM): < 7.00
- pIC50 (second compound 3.16 µM): < 7.00
- pIC50 (second compound 10 µM): < 7.00
- viability, T/C (second compound 0.0316 µM, first compound 0.000316 µM): 109%
- viability, T/C (second compound 0.0316 µM, first compound 0.001 µM): 103%
- viability, T/C (second compound 0.0316 µM, first compound 0.00316 µM): 109%
- viability, T/C (second compound 0.0316 µM, first compound 0.01 µM): 103%
- viability, T/C [1]: 111%
- viability, T/C [2]: 95.1%
- viability, T/C (second compound 0.1 µM, first compound 0.000316 µM): 100%
- viability, T/C (second compound 0.1 µM, first compound 0.001 µM): 122%
- viability, T/C (second compound 0.1 µM, first compound 0.00316 µM): 109%
- viability, T/C (second compound 0.1 µM, first compound 0.01 µM): 104%
- viability, T/C [3]: 108%
- viability, T/C [4]: 88.4%
- viability, T/C (second compound 0.316 µM, first compound 0.000316 µM): 110%
- viability, T/C (second compound 0.316 µM, first compound 0.001 µM): 109%
- viability, T/C (second compound 0.316 µM, first compound 0.00316 µM): 88.5%
- viability, T/C (second compound 0.316 µM, first compound 0.01 µM): 102%
- viability, T/C [5]: 110%
- viability, T/C [6]: 105%
- viability, T/C (second compound 1 µM, first compound 0.000316 µM): 107%
- viability, T/C (second compound 1 µM, first compound 0.001 µM): 102%
- viability, T/C (second compound 1 µM, first compound 0.00316 µM): 104%
- viability, T/C (second compound 1 µM, first compound 0.01 µM): 99.7%
- viability, T/C [7]: 119%
- viability, T/C [8]: 92.8%
- viability, T/C (second compound 3.16 µM, first compound 0.000316 µM): 105%
- viability, T/C (second compound 3.16 µM, first compound 0.001 µM): 100%
- viability, T/C (second compound 3.16 µM, first compound 0.00316 µM): 104%
- viability, T/C (second compound 3.16 µM, first compound 0.01 µM): 103%
- viability, T/C [9]: 108%
- viability, T/C [10]: 89%
- viability, T/C (second compound 10 µM, first compound 0.000316 µM): 102%
- viability, T/C (second compound 10 µM, first compound 0.001 µM): 90.9%
- viability, T/C (second compound 10 µM, first compound 0.00316 µM): 99%
- viability, T/C (second compound 10 µM, first compound 0.01 µM): 88.1%
- viability, T/C [11]: 102%
- viability, T/C [12]: 86.1%

Compound: O=C(c1cc(Cc2n[nH]c(=O)c3ccccc23)ccc1F)N1CCN(C(=O)C2CC2)CC1 + Nc1ccc(C#CCN(C(=O)Cc2ncc(C(F)(F)F)cc2C(F)(F)F)c2ccc(F)cc2)nn1
- pIC50 (second compound 0.0316 µM): < 5.00
- pIC50 (second compound 0.1 µM): < 5.00
- pIC50 (second compound 0.316 µM): < 5.00
- pIC50 (second compound 1 µM): < 5.00
- pIC50 (second compound 3.16 µM): < 5.00
- pIC50 (second compound 10 µM): < 5.00
- viability, T/C [1]: 106%
- viability, T/C [2]: 104%
- viability, T/C (second compound 0.0316 µM, first compound 0.316 µM): 101%
- viability, T/C (second compound 0.0316 µM, first compound 1 µM): 103%
- viability, T/C (second compound 0.0316 µM, first compound 3.16 µM): 110%
- viability, T/C (second compound 0.0316 µM, first compound 10 µM): 106%
- viability, T/C [3]: 108%
- viability, T/C [4]: 103%
- viability, T/C (second compound 0.1 µM, first compound 0.316 µM): 105%
- viability, T/C (second compound 0.1 µM, first compound 1 µM): 112%
- viability, T/C (second compound 0.1 µM, first compound 3.16 µM): 103%
- viability, T/C (second compound 0.1 µM, first compound 10 µM): 102%
- viability, T/C [5]: 99.9%
- viability, T/C [6]: 102%
- viability, T/C (second compound 0.316 µM, first compound 0.316 µM): 102%
- viability, T/C (second compound 0.316 µM, first compound 1 µM): 103%
- viability, T/C (second compound 0.316 µM, first compound 3.16 µM): 114%
- viability, T/C (second compound 0.316 µM, first compound 10 µM): 102%
- viability, T/C [7]: 103%
- viability, T/C [8]: 100%
- viability, T/C (second compound 1 µM, first compound 0.316 µM): 98.7%
- viability, T/C (second compound 1 µM, first compound 1 µM): 95.9%
- viability, T/C (second compound 1 µM, first compound 3.16 µM): 113%
- viability, T/C (second compound 1 µM, first compound 10 µM): 106%
- viability, T/C [9]: 103%
- viability, T/C [10]: 97.7%
- viability, T/C (second compound 3.16 µM, first compound 0.316 µM): 99.9%
- viability, T/C (second compound 3.16 µM, first compound 1 µM): 103%
- viability, T/C (second compound 3.16 µM, first compound 3.16 µM): 117%
- viability, T/C (second compound 3.16 µM, first compound 10 µM): 104%
- viability, T/C [11]: 95.8%
- viability, T/C [12]: 105%
- viability, T/C (second compound 10 µM, first compound 0.316 µM): 107%
- viability, T/C (second compound 10 µM, first compound 1 µM): 96.6%
- viability, T/C (second compound 10 µM, first compound 3.16 µM): 97.6%
- viability, T/C (second compound 10 µM, first compound 10 µM): 96.1%
